Laboratory results published in patent US20240083857A1, “2-Methyl-Quinazolines” (Bayer Pharma Aktiengesellschaft, priority 2017, published 2024).
Read-outs that look alike come from different tables or passages of the source.

How the values were obtained:
[1] = biological target: K-Ras^G12C : hSOS1 interaction (Homo sapiens, UniProt Q07889); assay: Biochemical assay 1: K-Ras^G12C interaction assay with hSOS1 (HTRF); format: binding; details: for IC50: E-notation values, unit inferred, read-out: Assay 1 (KRAS-SOS interaction) IC50; for inhibition at 20 µM: read-out: Assay 1 (KRAS-SOS Interaction) activity expressed as % inhibition at 20 μM
[2] = biological target: Epidermal Growth Factor Receptor (EGFR) (Homo sapiens (Human), UniProt P00533); assay: EGFR kinase assay (TR-FRET); format: biochemical
Description: EGFR inhibitory activity of compounds of the present invention was quantified employing the TR-FRET based EGFR assay as described in the following paragraphs.
Epidermal Growth Factor Receptor (EGFR) affinity purified from human carcinoma A431 cells (Sigma-Aldrich, #E3641) was used as kinase. As substrate for the kinase reaction the biotinylated peptide biotin-Ahx-[…] (SEQ ID NO 5) (C-terminus in amid form) was used which can be purchased e.g. form the company Biosyntan GmbH (Berlin-Buch, Germany).
For the assay 50 nL of a 100 fold concentrated solution of the test compound in DMSO was pipetted into a black low volume 384 well microtiter plate (Greiner Bio-One, Frickenhausen, Germany), 2 μL of a solution of EGFR in aqueous assay buffer [50 mM Hepes/HCl pH 7.0, 1 mM MgCl2, 5 mM MnCl2, 0.5 mM activated sodium ortho-vanadate, 0.005% (v/v) Tween-20]were added and the mixture was incubated for 15 min at 22° C. to allow pre-binding of the test compounds to the enzyme before the start of the kinase reaction. […] The concentration of EGFR was adjusted depending of the activity of the enzyme lot and was chosen appropriate to have the assay in the linear range, typical concentration were about 3 U/ml. The reaction was stopped by the addition of 5 μl of a solution of HTRF detection reagents (0.1 μM streptavidine-XL665 [Cis Biointernational] and 1 nM PT66-Tb-Cryptate, an terbium-cryptate labelled anti-phospho-tyrosine antibody from Cis Biointernational [instead of the PT66-Tb-cryptate PT66-Eu-Chelate from Perkin Elmer can also be used]) in an aqueous EDTA-solution (80 mM EDTA, 0.2% (w/v) bovine serum albumin in 50 mM HEPES pH 7.5).
The resulting mixture was incubated 1 h at 22° C. to allow the binding of the biotinylated phosphorylated peptide to the streptavidine-XL665 and the PT66-Eu-Chelate. Subsequently the amount of phosphorylated substrate was evaluated by measurement of the resonance energy transfer from the PT66-Tb-Cryptate to the streptavidine-XL665. Therefore, the fluorescence emissions at 620 nm and 665 nm after excitation at 337 nm were measured in a HTRF reader, e.g. a Pherastar (BMG Labtechnologies, Offenburg, Germany) or a Viewlux (Perkin-Elmer). The ratio of the emissions at 665 nm and at […] was taken as the measure for the amount of phosphorylated substrate.

[3] = E-notation values, unit inferred, read-out: EGFR-assay IC50
[4] = values given in μM, read-out: EGFR kinase inhibition IC50
[5] = in μM, read-out: EGFR-assay IC50

Chain of Epidermal Growth Factor Receptor (EGFR) (P00533 25-1210): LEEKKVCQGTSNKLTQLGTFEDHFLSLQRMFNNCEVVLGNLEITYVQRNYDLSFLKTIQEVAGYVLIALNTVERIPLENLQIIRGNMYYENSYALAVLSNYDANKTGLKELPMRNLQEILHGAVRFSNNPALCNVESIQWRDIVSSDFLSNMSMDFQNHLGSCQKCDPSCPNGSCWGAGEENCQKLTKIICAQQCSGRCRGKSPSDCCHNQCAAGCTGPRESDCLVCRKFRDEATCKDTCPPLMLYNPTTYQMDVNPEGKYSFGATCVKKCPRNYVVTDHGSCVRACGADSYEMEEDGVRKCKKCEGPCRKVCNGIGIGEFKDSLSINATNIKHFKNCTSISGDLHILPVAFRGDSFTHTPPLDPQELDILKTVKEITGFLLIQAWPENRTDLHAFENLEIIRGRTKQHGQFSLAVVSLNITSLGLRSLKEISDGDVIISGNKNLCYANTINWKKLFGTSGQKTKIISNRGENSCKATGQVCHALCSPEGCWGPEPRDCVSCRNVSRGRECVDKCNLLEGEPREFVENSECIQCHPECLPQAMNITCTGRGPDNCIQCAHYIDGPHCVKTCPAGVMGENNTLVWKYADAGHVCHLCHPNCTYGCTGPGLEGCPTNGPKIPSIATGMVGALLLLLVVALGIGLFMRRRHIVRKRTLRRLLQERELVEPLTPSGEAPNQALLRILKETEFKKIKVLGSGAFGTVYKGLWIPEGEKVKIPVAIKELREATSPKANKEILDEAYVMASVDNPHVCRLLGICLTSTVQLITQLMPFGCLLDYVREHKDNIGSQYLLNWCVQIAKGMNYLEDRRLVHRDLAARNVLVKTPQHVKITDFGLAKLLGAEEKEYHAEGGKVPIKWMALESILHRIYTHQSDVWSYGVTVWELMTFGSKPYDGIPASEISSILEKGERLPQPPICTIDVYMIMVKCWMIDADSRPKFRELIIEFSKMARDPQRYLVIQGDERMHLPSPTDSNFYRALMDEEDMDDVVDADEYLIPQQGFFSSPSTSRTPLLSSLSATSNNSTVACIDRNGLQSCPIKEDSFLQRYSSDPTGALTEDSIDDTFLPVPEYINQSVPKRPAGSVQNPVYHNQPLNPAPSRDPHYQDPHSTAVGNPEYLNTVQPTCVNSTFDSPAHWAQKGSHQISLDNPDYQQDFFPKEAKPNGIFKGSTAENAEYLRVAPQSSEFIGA

Row | SMILES | IC50 [1] | IC50 [2, 3] | inhibition at 20 µM [1] | IC50 [2, 4] | IC50 [2, 5]
1 | COc1cc2nc(C)nc(NC(C)c3ccc(-c4ccccc4CN(C)C)s3)c2cc1OC (single isomer, unassigned) [Example 390, N-[1-(5-{2-[(dimethylamino)methyl]phenyl}thiophen-2-yl)ethyl]-6,7-dimethoxy-2-methylquinazolin-4-amine] | 5 µM | > 20 µM | – | – | –
2 | COc1cc2nc(C)nc(NC(C)c3ccc(-c4ccccc4CN(C)C)s3)c2cc1OC (single isomer, unassigned) [Example 391, N-[1-(5-{2-[(dimethylamino)methyl]phenyl}thiophen-2-yl)ethyl]-6,7-dimethoxy-2-methylquinazolin-4-amine] | 0.0155 µM | > 20 µM | – | – | –
3 | COc1cc2nc(C)nc(NC(C)c3ccc(=O)[nH]c3)c2cc1OC (single isomer, unassigned; enantiomer 1) [Example 227, 5-{1-[(6,7-dimethoxy-2-methylquinazolin-4-yl)amino]ethyl}pyridin-2(1H)-one, Enantiomer 1] | – | – | 48% | > 20 µM | –
4 | COc1cc2nc(C)nc(NC(C)c3c(C)ccc4[nH]ncc34)c2cc1OC (stereo not shown) [Example 7, 6,7-dimethoxy-2-methyl-N-[1-(5-methyl-1H-indazol-4-yl)ethyl]quinazolin-4-amine] | – | – | 44% | > 20 µM | –
5 | COc1cc2nc(C)nc(NC(C)c3ccc(-n4ccc(CCO)n4)o3)c2cc1OC (stereo not shown) [Example 226, 2-[1-(5-{1-[(6,7-dimethoxy-2-methylquinazolin-4-yl)amino]ethyl}furan-2-yl)-1H-pyrazol-3-yl]ethanol] | – | – | 43% | > 20 µM | –
6 | COc1cc2nc(C)nc(NC(C)c3ccc(C4=CCCC4)s3)c2cc1OC (stereo not shown) [Example 231, N-{1-[5-(cyclopent-1-en-1-yl)thiophen-2-yl]ethyl}-6,7-dimethoxy-2-methylquinazolin-4-amine] | – | – | 56% | > 20 µM | –
7 | COc1cc2nc(C)nc(NC(C)c3ccc(-c4ccc(CNC(=O)OC(C)(C)C)o4)s3)c2cc1OC (stereo not shown) [Example 236, tert-butyl {[5-(5-{1-[(6,7-dimethoxy-2-methylquinazolin-4-yl)amino]ethyl}thiophen-2-yl)furan-2-yl]methyl}carbamate] | – | – | 37% | > 20 µM | –
8 | COC(=O)c1cc(-c2ccc(C(C)Nc3nc(C)nc4cc(OC)c(OC)cc34)s2)nn1C (stereo not shown) [Example 237, methyl 3-(5-{1-[(6,7-dimethoxy-2-methylquinazolin-4-yl)amino]ethyl}thiophen-2-yl)-1-methyl-1H-pyrazole-5-carboxylate] | – | – | 31% | > 20 µM | –
9 | COc1cc2nc(C)nc(NC(C)c3ccc(-c4ccc(F)cc4CNC(=O)c4cc5ccccc5[nH]4)s3)c2cc1OC (stereo not shown) [Example 296, N-[2-(5-{1-[(6,7-dimethoxy-2-methylquinazolin-4-yl)amino]ethyl}thiophen-2-yl)-5-fluorobenzyl]-1H-indole-2-carboxamide] | – | – | 34% | > 20 µM | –
10 | COc1cc2nc(C)nc(NC(C)c3ccc(-c4ccccc4CN4CCN(C(=O)OC(C)(C)C)CC4)s3)c2cc1OC (stereo not shown) [Example 306, tert-butyl 4-[2-(5-{1-[(6,7-dimethoxy-2-methylquinazolin-4-yl)amino]ethyl}thiophen-2-yl)benzyl]piperazine-1-carboxylate] | – | – | 45% | > 20 µM | –
11 | COc1cc2nc(C)nc(NC(C)c3ccc(-c4ccccc4CNc4ccccc4)s3)c2cc1OC (stereo not shown) [Example 362, 6,7-dimethoxy-2-methyl-N-[1-(5-{2-[(phenylamino)methyl]phenyl}thiophen-2-yl)ethyl]quinazolin-4-amine] | – | – | 26% | > 20 µM | –
12 | COCCNCc1ccccc1-c1ccc(C(C)Nc2nc(C)nc3cc(OC)c(OC)cc23)s1 (stereo not shown) [Example 369, 6,7-dimethoxy-N-{1-[5-(2-{[(2-methoxyethyl)amino]methyl}phenyl)thiophen-2-yl]ethyl}-2-methylquinazolin-4-amine] | 0.0995 µM | – | – | – | > 20 µM
13 | COc1cc2nc(C)nc(NC(C)c3ccc(-c4ccccc4CNC4CC4)s3)c2cc1OC (stereo not shown) [Example 370, N-[1-(5-{2-[(cyclopropylamino)methyl]phenyl}thiophen-2-yl)ethyl]-6,7-dimethoxy-2-methylquinazolin-4-amine] | 0.27 µM | – | – | – | > 20 µM
14 | COC(=O)c1ccc2nc(C)nc(N[C@H](C)c3cccc(Cl)c3)c2c1 [Example 371, methyl 4-{[(1R)-1-(3-chlorophenyl)ethyl]amino}-2-methylquinazoline-6-carboxylate] | 1.89 µM | – | – | – | > 20 µM
15 | Cc1nc(N[C@H](C)c2cccc(Cl)c2)c2cc(CO)ccc2n1 [Example 373, (4-{[(1R)-1-(3-chlorophenyl)ethyl]amino}-2-methylquinazolin-6-yl)methanol] | 1.52 µM | – | – | – | > 20 µM
16 | COc1cc2nc(C)nc(NC(C)c3ccc(-c4ccccc4C(O)c4ccccc4)s3)c2cc1OC (stereo not shown) [Example 374, [2-(5-{1-[(6,7-dimethoxy-2-methylquinazolin-4-yl)amino]ethyl}thiophen-2-yl)-phenyl](phenyl)methanol] | 1.6 µM | – | – | – | > 20 µM
17 | COc1cc2nc(C)nc(NC(C)c3ccc(-c4ccccc4C(O)Cc4ccccc4)s3)c2cc1OC (stereo not shown) [Example 376, 1-[2-(5-{1-[(6,7-dimethoxy-2-methylquinazolin-4-yl)amino]ethyl}thiophen-2-yl)phenyl]-2-phenylethanol] | 5.46 µM | – | – | – | > 20 µM
18 | CCCCC(O)c1ccccc1-c1ccc(C(C)Nc2nc(C)nc3cc(OC)c(OC)cc23)s1 (stereo not shown) [Example 377, 1-[2-(5-{1-[(6,7-dimethoxy-2-methylquinazolin-4-yl)amino]ethyl}thiophen-2-yl)phenyl]pentan-1-ol] | 5.14 µM | – | – | – | > 20 µM
19 | C#CC(O)c1ccccc1-c1ccc(C(C)Nc2nc(C)nc3cc(OC)c(OC)cc23)s1 (stereo not shown) [Example 378, 1-[2-(5-{1-[(6,7-dimethoxy-2-methylquinazolin-4-yl)amino]ethyl}thiophen-2-yl)phenyl]prop-2-yn-1-ol] | 0.43 µM | – | – | – | > 20 µM
20 | COc1cc2nc(C)nc(NC(C)c3ccc(-c4ccccc4C(O)C(C)C)s3)c2cc1OC (stereo not shown) [Example 379, 1-[2-(5-{1-[(6,7-dimethoxy-2-methylquinazolin-4-yl)amino]ethyl}thiophen-2-yl)phenyl]-2-methylpropan-1-ol] | 0.568 µM | – | – | – | > 20 µM
21 | COc1cc2nc(C)nc(NC(C)c3ccc(-c4ccccc4C(O)C(F)(F)F)s3)c2cc1OC (stereo not shown) [Example 380, 1-[2-(5-{1-[(6,7-dimethoxy-2-methylquinazolin-4-yl)amino]ethyl}thiophen-2-yl)phenyl]-2,2,2-trifluoroethanol] | 0.937 µM | – | – | – | > 20 µM
22 | COc1cc2nc(C)nc(NC(C)c3cc(C)c(-c4cnc5n4CCC5)s3)c2cc1OC (stereo not shown) [Example 381, N-{1-[5-(6,7-dihydro-5H-pyrrolo[1,2-a]imidazol-3-yl)-4-methylthiophen-2-yl]ethyl}-6,7-dimethoxy-2-methylquinazolin-4-amine] | 0.49 µM | – | – | – | > 20 µM
23 | COc1cc2nc(C)nc(NC(C)c3ccc(-c4ccc(F)cc4CNC(=O)CO)s3)c2cc1OC (stereo not shown) [Example 382, N-[2-(5-{1-[(6,7-dimethoxy-2-methylquinazolin-4-yl)amino]ethyl}thiophen-2-yl)-5-fluorobenzyl]-2-hydroxyacetamide] | 0.253 µM | – | – | – | > 20 µM
24 | COCC(=O)NCc1cc(F)ccc1-c1ccc(C(C)Nc2nc(C)nc3cc(OC)c(OC)cc23)s1 (stereo not shown) [Example 383, N-[2-(5-{1-[(6,7-dimethoxy-2-methylquinazolin-4-yl)amino]ethyl}thiophen-2-yl)-5-fluorobenzyl]-2-methoxyacetamide] | 0.984 µM | – | – | – | > 20 µM
25 | COc1cc2nc(C)nc(NC(C)c3ccc(-c4cc(Cl)ccc4CNC(=O)OC(C)(C)C)s3)c2cc1OC (stereo not shown) [Example 387, tert-butyl [4-chloro-2-(5-{1-[(6,7-dimethoxy-2-methylquinazolin-4-yl)amino]ethyl}-thiophen-2-yl)benzyl]carbamate] | 1.17 µM | > 20 µM | – | – | –
26 | COc1cc2nc(C)nc(N[C@H](C)c3cccc(-c4ccnc(O)c4)c3)c2cc1OC [Example 388, 4-(3-{(1R)-1-[(6,7-dimethoxy-2-methylquinazolin-4-yl)amino]ethyl}phenyl)pyridin-2-ol] | 0.205 µM | > 20 µM | – | – | –
